Measured values published in patent publication US10457654B2 (GENENTECH, INC., priority 2017, dated 2019).
Where a name gives a salt, the structure may show the parent alone.

Biological target: hNav1.7 (Homo sapiens (Human), UniProt Q15858)
Assay: Tritiated compound binding to membranes from cells expressing hNav1.7 and the β1 subunit, competitive binding (LBA, Ex. 243A)
Details: 100 pM [3H]compound, 18 h, room temperature; read-out: Nav1.7 LBA (Ex. 243A) IC50
Description: Tritiated Compound Binding to Membranes Isolated from Cells that Heterologously Express hNav1.7 and the β1 Subunit
Preparation of membranes containing recombinantly expressed sodium channels: Frozen recombinant cell pellets were thawed on ice and diluted to 4 times the cell pellet weight with ice cold 50 mM Tris HCl, pH 7.4 buffer. The cell suspensions were homogenized on ice using a motorized glass dounce homogeniser. Homogenates were further diluted 8.4 times with ice cold 50 mM Tris HCl, pH 7.4 buffer and then centrifuged at 200×g at 4° C. for 15 min. The supernatants were collected and centrifuged at 10000×g at 4° C. for 50 min. […] The homogenized membranes were then processed through a syringe equipped with a 26 gauge needle. Protein concentrations were determined by Bradford Assay and the membranes were stored at −80° C.
Radioligand Binding Studies: Saturation experiments. A competitive NaV1.7 inhibitor having a methyl group was tritiated. Three tritiums were incorporated in place of methyl hydrogens to generate [^3H]compound. Binding of this radioligand was performed in 5 mL borosilicate glass test tubes at room temperature. […] Non-specific binding was determined in the presence of 1 μM unlabeled compound. After 18h, the reactants were filtered through GF/C glass fiber filters presoaked in 0.5% w/v polyethylene imine. […] [^3H]compound bound to filters was quantified by liquid scintillation counting.
Competitive binding experiments: Binding reactions were performed in 96-well polypropylene plates at room temperature for 18h. In 360 μL, membranes were incubated with 100 pM [^3H]compound and increasing concentrations of Test Compound. Non-specific binding was defined in the presence of 1 μM unlabeled compound. Reactions were transferred and filtered through 96-well glass fiber/C filter plates presoaked with 0.5% polyethylene imine. The filtered reactions were washed 5 times with 200 μL ice cold buffer containing 0.25% BSA. Bound radioactivity was determined by liquid scintillation counting.
Data Analysis: For saturation experiments, non-specific binding was subtracted from total binding to provide specific binding and these values were recalculated in terms of pmol ligand bound per mg protein. Saturation curves were constructed and dissociation constants were calculated using the single site ligand binding model: Beq=(Bmax*X)/(X+Kd), where Beq is the amount of ligand bound at equilibrium, Bmax is the maximum receptor density, Kd is the dissociation constant for the ligand, and X is the free ligand concentration. For competition studies percent inhibition was determined and IC50 values were calculated using a 4 parameter logistic model (% inhibition=(A+((B−A)/(1+((x/C)^D)))) using XLfit, where A and B are the maximal and minimum inhibition respectively, C is the IC50 concentration and D is the (Hill) slope.

Chain of hNav1.7 (Q15858 whole entry, looked up): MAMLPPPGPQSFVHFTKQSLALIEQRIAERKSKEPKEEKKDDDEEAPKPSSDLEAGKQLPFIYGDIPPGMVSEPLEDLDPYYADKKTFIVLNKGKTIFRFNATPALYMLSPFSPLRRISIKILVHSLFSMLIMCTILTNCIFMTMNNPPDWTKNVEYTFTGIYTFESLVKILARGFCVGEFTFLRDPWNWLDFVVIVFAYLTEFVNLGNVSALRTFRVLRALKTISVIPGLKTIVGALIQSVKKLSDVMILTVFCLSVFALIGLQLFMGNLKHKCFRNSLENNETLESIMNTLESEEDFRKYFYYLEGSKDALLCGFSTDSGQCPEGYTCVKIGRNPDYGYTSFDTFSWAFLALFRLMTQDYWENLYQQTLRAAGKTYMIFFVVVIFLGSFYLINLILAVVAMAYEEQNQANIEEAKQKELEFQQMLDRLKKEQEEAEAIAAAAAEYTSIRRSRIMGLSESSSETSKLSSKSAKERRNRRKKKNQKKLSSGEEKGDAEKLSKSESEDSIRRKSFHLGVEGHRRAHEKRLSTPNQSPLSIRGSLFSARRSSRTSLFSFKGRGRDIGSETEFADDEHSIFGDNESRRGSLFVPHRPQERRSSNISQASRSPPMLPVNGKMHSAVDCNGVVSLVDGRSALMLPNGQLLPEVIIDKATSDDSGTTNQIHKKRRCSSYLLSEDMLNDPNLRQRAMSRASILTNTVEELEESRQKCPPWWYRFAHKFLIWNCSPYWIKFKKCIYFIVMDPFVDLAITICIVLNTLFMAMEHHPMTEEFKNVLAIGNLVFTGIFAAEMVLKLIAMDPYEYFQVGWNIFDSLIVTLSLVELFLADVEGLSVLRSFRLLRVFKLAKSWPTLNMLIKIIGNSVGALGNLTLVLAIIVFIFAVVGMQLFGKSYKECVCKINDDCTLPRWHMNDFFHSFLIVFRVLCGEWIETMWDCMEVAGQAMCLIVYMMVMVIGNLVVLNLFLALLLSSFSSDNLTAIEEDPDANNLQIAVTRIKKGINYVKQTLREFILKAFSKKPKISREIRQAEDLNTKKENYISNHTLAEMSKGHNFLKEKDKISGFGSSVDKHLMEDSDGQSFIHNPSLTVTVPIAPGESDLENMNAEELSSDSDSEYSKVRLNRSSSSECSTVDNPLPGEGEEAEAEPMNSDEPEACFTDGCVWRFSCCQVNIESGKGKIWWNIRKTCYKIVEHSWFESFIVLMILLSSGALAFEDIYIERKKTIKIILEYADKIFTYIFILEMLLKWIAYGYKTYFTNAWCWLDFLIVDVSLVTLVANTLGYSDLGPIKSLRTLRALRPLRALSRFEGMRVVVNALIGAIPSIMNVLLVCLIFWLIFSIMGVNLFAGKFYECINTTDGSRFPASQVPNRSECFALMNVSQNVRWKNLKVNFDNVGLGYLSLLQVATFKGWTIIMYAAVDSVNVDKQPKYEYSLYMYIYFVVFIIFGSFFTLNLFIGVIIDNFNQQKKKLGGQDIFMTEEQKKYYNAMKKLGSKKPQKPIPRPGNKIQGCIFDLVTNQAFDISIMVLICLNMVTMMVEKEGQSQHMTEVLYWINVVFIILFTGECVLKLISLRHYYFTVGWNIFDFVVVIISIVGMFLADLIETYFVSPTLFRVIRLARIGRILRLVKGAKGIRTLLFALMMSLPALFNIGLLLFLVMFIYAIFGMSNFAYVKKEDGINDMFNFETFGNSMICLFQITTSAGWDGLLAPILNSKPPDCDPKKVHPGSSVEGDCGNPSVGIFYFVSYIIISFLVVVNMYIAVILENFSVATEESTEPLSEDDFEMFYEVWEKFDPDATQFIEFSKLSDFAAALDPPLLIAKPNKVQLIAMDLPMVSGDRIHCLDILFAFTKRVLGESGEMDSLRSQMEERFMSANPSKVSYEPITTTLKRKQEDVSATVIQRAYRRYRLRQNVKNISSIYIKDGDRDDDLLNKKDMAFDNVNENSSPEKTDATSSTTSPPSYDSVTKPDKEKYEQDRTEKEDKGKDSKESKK
Chain of hNav1.7 (Q07699 whole entry partner, looked up): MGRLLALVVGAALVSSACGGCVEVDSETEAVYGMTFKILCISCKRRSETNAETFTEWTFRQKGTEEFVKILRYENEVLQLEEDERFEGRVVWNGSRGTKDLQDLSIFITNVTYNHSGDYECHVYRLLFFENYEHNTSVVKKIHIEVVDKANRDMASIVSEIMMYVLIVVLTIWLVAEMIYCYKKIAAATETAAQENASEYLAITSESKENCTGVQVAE

Row | Compound | IC50 [nM]
1 | CC(C)N(C)[C@H]1CCCC[C@@H]1Nc1cc(F)c(S(=O)(=O)Nc2nccs2)cc1Cl [Example 33, 5-chloro-2-fluoro-4-(((1S,2S)-2-(isopropyl(methyl)amino)cyclohexyl)amino)-N-(thiazol-2-yl)benzenesulfonamide] | 82.4
2 | CCCN[C@H]1CCCC[C@@H]1Nc1cc(F)c(S(=O)(=O)Nc2nccs2)cc1Cl [Example 34, 5-chloro-2-fluoro-4-(((1 S,2S)-2-(propylamino)cyclohexyl)amino)-N-(thiazol-2-yl)benzenesulfonamide] | 35.2
3 | CN(C)[C@@H]1C[C@H](C(F)(F)F)CC[C@H]1Nc1cc(F)c(S(=O)(=O)Nc2nccs2)cc1Cl [Example 36, 5-chloro-4-(((1R,2R,4R)-2-(dimethylamino)-4-(trifluoromethyl)cyclohexyl)amino)-2-fluoro-N-(thiazol-2-yl)benzenesulfonamide] | 93.6
4 | CN(CCF)[C@H]1CCCC[C@@H]1Nc1cc(F)c(S(=O)(=O)Nc2nccs2)cc1Cl [Example 37, 5-chloro-2-fluoro-4-(((1S,2S)-2-((2-fluoroethyl)(methyl)amino)cyclohexyl)amino)-N-(thiazol-2-yl)benzenesulfonamide formate] | 2.76
5 | Cc1cnc(NS(=O)(=O)c2cc(Cl)c(N[C@H]3CCCC[C@@H]3N(C)C)cc2F)s1 [Example 40, 5-chloro-4-(((1S,2S)-2-(dimethylamino)cyclohexyl)amino)-2-fluoro-N-(5-methylthiazol-2-yl)benzenesulfonamide formate] | 880
6 | CCN[C@H]1CCCC[C@@H]1Oc1cc(F)c(S(=O)(=O)Nc2nccs2)cc1Cl [Example 42, 5-chloro-4-(((1S,2S)-2-(ethylamino)cyclohexyl)oxy)-2-fluoro-N-(thiazol-2-yl)benzenesulfonamide] | 27.2
7 | CCN[C@@H]1CCCC[C@H]1Oc1cc(F)c(S(=O)(=O)Nc2nccs2)cc1Cl [Example 43, 5-chloro-4-(((1R,2R)-2-(ethylamino)cyclohexyl)oxy)-2-fluoro-N-(thiazol-2-yl)benzenesulfonamide] | 1130
8 | CC1CCCN1[C@H]1CCCC[C@@H]1Nc1cc(F)c(S(=O)(=O)Nc2nccs2)cc1Cl (stereo partly drawn) [Example 44, 5-chloro-2-fluoro-4-(((1 S,2S)-2-(2-methylpyrrolidin-1-yl)cyclohexyl)amino)-N-(thiazol-2-yl)benzenesulfonamide] | 74.4
9 | CC(O)CN(C)[C@H]1CCCC[C@@H]1Nc1cc(F)c(S(=O)(=O)Nc2nccs2)cc1Cl (stereo partly drawn) [Example 45, 5-chloro-2-fluoro-4-(((1 S,2S)-2-((2-hydroxypropyl)(methyl)amino)cyclohexyl)amino)-N-(thiazol-2-yl)benzenesulfonamide] | 12.7
10 | CN(C)[C@H]1CCCC[C@@H]1Nc1cc(F)c(S(=O)(=O)Nc2cscn2)cc1Cl [Example 46, 5-chloro-4-(((1S,2S)-2-(dimethylamino)cyclohexyl)amino)-2-fluoro-N-(thiazol-4-yl)benzenesulfonamide] | 770
11 | O=S(=O)(Nc1nccs1)c1cc(Cl)c(N[C@H]2CCCC[C@@H]2N2CC(O)C2)cc1F [Example 47, 5-chloro-2-fluoro-4-(((1 S,2S)-2-(3-hydroxyazetidin-1-yl)cyclohexyl)amino)-N-(thiazol-2-yl)benzenesulfonamide] | 529
12 | CN(C)[C@@H]1CC=C(C(F)(F)F)C[C@H]1Nc1cc(F)c(S(=O)(=O)Nc2nccs2)cc1Cl [Example 48, 5-chloro-4-(((1R,6R)-6-(dimethylamino)-3-(trifluoromethyl)cyclohex-3-en-1-yl)amino)-2-fluoro-N-(thiazol-2-yl)benzenesulfonamide formate] | 127
13 | CN(C)[C@H]1CCCC[C@@H]1Nc1cc(F)c(S(=O)(=O)Nc2ncc(F)s2)cc1Cl [Example 49, 5-chloro-4-(((1S,2S)-2-(dimethylamino)cyclohexyl)amino)-2-fluoro-N-(5-fluorothiazol-2-yl)benzenesulfonamide] | 42.1
14 | CN[C@H]1CCCC[C@@H]1Nc1cc(F)c(S(=O)(=O)Nc2nccs2)cc1Br [Example 50, 5-bromo-2-fluoro-4-(((1S,2S)-2-(methylamino)cyclohexyl)amino)-N-(thiazol-2-yl)benzenesulfonamide formate] | 58.4
15 | CN[C@H]1CCCC[C@@H]1Nc1cc(F)c(S(=O)(=O)Nc2nccs2)cc1C1CC1 [Example 51, 5-cyclopropyl-2-fluoro-4-(((1S,2S)-2-(methylamino)cyclohexyl)amino)-N-(thiazol-2-yl)benzenesulfonamide formate] | 75.6
16 | CCN[C@H]1CCCC[C@@H]1Nc1cc(F)c(S(=O)(=O)Nc2nccs2)cc1Br [Example 52, 5-bromo-4-(((1S,2S)-2-(ethylamino)cyclohexyl)amino)-2-fluoro-N-(thiazol-2-yl)benzenesulfonamide formate] | 8.48
17 | CN(C)[C@H]1CCCC[C@@H]1N1CCOc2cc(S(=O)(=O)Nc3nccs3)ccc21 [Example 54, 4-((1 S,2S)-2-(dimethylamino)cyclohexyl)-N-(thiazol-2-yl)-3,4-dihydro-2H-benzo[b][1,4]oxazine-7-sulfonamide] | 97.9
18 | CN(C1CNC1)[C@H]1CCCC[C@@H]1Nc1cc(F)c(S(=O)(=O)Nc2cccc(F)n2)cc1Cl [Example 55, 4-(((1S,2S)-2-(azetidin-3-yl(methyl)amino)cyclohexyl)amino)-5-chloro-2-fluoro-N-(6-fluoropyridin-2-yl)benzenesulfonamide] | 7.38
19 | CN(CCO)[C@H]1CCCC[C@@H]1Nc1cc(F)c(S(=O)(=O)Nc2nccs2)cc1C1CC1 [Example 56, 5-cyclopropyl-2-fluoro-4-(((1S,2S)-2-((2-hydroxyethyl)(methyl)amino)cyclohexyl)amino)-N-(thiazol-2-yl)benzenesulfonamide hydrochloride] | 3.46
20 | CN(C1CNC1)[C@H]1CCCC[C@@H]1Nc1cc(F)c(S(=O)(=O)Nc2nccs2)cc1C1CC1 [Example 57, 4-(((1S,2S)-2-(azetidin-3-yl(methyl)amino)cyclohexyl)amino)-5-cyclopropyl-2-fluoro-N-(thiazol-2-yl)benzenesulfonamide dihydrochloride] | 2.42
21 | CNCCN(C)[C@H]1CCCC[C@@H]1Nc1cc(F)c(S(=O)(=O)Nc2nccs2)cc1Cl [Example 58, 5-chloro-2-fluoro-4-(((1S,2S)-2-(methyl(2-(methylamino)ethyl)amino)cyclohexyl)amino)-N-(thiazol-2-yl)benzenesulfonamide formate] | 3.42
22 | O=S(=O)(Nc1ccncn1)c1cc(Cl)c(N[C@H]2CCCC[C@@H]2N2CCCC2)cc1F [Example 60, 5-chloro-2-fluoro-N-(pyrimidin-4-yl)-4-(((1S,2S)-2-(pyrrolidin-1-yl)cyclohexyl)amino)benzenesulfonamide] | 198
23 | O=S(=O)(Nc1ccncn1)c1cc(Cl)c(N[C@H]2CCCC[C@@H]2N2CCC(O)C2)cc1F (stereo partly drawn) [Example 61, 5-chloro-2-fluoro-4-(((1S,2S)-2-(3-hydroxypyrrolidin-1-yl)cyclohexyl)amino)-N-(pyrimidin-4-yl)benzenesulfonamide] | 558
24 | O=S(=O)(Nc1cccc(F)n1)c1cc(Cl)c(N[C@H]2CCCC[C@@H]2N2CCC(O)C2)cc1F (stereo partly drawn) [Example 62, 5-chloro-2-fluoro-N-(6-fluoropyridin-2-yl)-4-(((1S,2S)-2-(3-hydroxypyrrolidin-1-yl)cyclohexyl)amino)benzenesulfonamide] | 57.8
25 | CCN[C@H]1CCCC[C@@H]1Nc1cc(F)c(S(=O)(=O)Nc2nccs2)cc1C1CC1 [Example 64, 5-cyclopropyl-4-(((1S,2S)-2-(ethylamino)cyclohexyl)amino)-2-fluoro-N-(thiazol-2-yl)benzenesulfonamide formate] | 11.6
26 | CN(C)[C@H]1CCCC[C@@H]1Nc1cc(F)c(S(=O)(=O)Nc2nccs2)cc1C(F)(F)F [Example 65, 4-(((1S,2S)-2-(dimethylamino)cyclohexyl)amino)-2-fluoro-N-(thiazol-2-yl)-5-(trifluoromethyl)benzenesulfonamide] | 29.3
27 | O=S(=O)(Nc1nccs1)c1cc(Cl)c(N[C@H]2CCCC[C@@H]2N2CC[C@H](O)C2)cc1F [Example 67, 5-chloro-2-fluoro-4-(((1S,2S)-2-((S)-3-hydroxypyrrolidin-1-yl)cyclohexyl)amino)-N-(thiazol-2-yl)benzenesulfonamide] | 17.3
28 | O=S(=O)(Nc1nccs1)c1cc(Cl)c(N[C@H]2CCCC[C@@H]2N2CC[C@@H](O)C2)cc1F [Example 68, 5-chloro-2-fluoro-4-(((1S,2S)-2-((R)-3-hydroxypyrrolidin-1-yl)cyclohexyl)amino)-N-(thiazol-2-yl)benzenesulfonamide] | 16.6
